Data on 23 molecules can be found in PMC3857224, “Inhibition of DNA Glycosylases via Small Molecule Purine Analogs” (PLoS ONE, 2013).

pIC50: −log10 of the molar value.

For orientation: pIC50 means the negative decadic logarithm of the IC50, by convention in mol/L. A lower pIC50 goes with a high IC50.

In test [1] the target is T1, NEIL1 (Homo sapiens, UniProt Q96FI4).
T1 construct: made in house
As to the kind of experiment: gel-based incision assay of oligodeoxynucleotides containing site-specific base lesions. The class given is biochemical. To be noted: polyacrylamide gel, reaction quenched at 20 min. The protocol:
The 384-well fluorogenic assay was carried out in a 20 µL reaction mixture in 20 mM Tris-HCl pH 8.0, 100 mM KCl, and 0.1% BSA, with 5 nM active enzyme and 50 nM substrate. Possible inhibitors were incubated with the enzyme for at least 5 min at room temperature in a black, low-volume 384-well plate before addition of an equal volume of substrate to start the reaction. The plates were spun for 30 s at 1000 rcf to remove bubbles. The reactions were incubated at 37°C and fluorescence data collected on an Infinite M200 (Tecan, Mannedorf, Switzerland) equipped with standard optics (excitation filter 525 nm, and emission filter 598 nm). For the gel-based assay, reactions were initiated as described for the fluorogenic assay, but quenched with 20 µL 95% formamide at 20 min. The products were separated by electrophoresis through a 15% polyacrylamide gel containing 8 M urea and visualized by a Typhoon scanner (GE Life Sciences, Piscataway, NJ). The fraction of cleaved product was measured using ImageQuant software and analyzed using GraphPad Prism 6. […]

For test [2], the target named is T1, NEIL1. As to the kind of experiment: qHTS fluorogenic glycosylase/AP lyase assay, 1536-well, Sp/Gh substrate. The class given is biochemical. Conditions: 5 concentrations. The protocol:
The fluorogenic assay was miniaturized to 4 µL in 1536-well black solid plates by optimization of the enzyme and Sp/Gh substrate concentrations. Briefly, 3 µL of 25 nM NEIL1 were dispensed into each well of a 1536-well plate (except buffer in columns 3 and 4 as a negative control). Compounds (DMSO solutions) and control (DMSO only) (23 nL) were transferred to the plate via Kalypsys pintool. The plate was incubated for 15 min at room temperature, and then 1 µL of the Sp/Gh-containing DNA substrate (75 nM final concentration) was added to start the reaction. The plate was immediately transferred into the ViewLux reader for the kinetic fluorescence read. Initial rate data were normalized against uninhibited and no-enzyme controls and the resulting percent activities as a function of compound concentration were fitted using the Hill equation.
Having established the general principle for a glycosylase screening assay, further assay development was undertaken to enable HTS in which the reaction volumes were reduced by 5-fold to a total of 4 µL. Initially, the library of pharmacologically active compounds (LOPAC^1280) was screened for inhibitors of NEIL1 as a determination of the feasibility of this high-throughput method. […] All compounds were screened at 5 different concentrations that allowed for the initial estimation of inhibitory potency (IC50) values, as well as an evaluation of the shape of the response curves. In addition to the anticipated inhibitors (known DNA intercalators, such as ellipticine (IC50 = 2 µM)) and other small molecules that have been previously established to be promiscuous inhibitors (such as aurintricarboxylic acid (IC50<1 µM)), one interesting hit from this screen was CGP-74514A (NCGC ID is NCGC00015229) (Figure 5A). CGP-74514A is a known small molecule inhibitor of Cdk1 in which the structure of this molecule is based on a purine ring backbone.

T1 sequence (Q96FI4 whole entry): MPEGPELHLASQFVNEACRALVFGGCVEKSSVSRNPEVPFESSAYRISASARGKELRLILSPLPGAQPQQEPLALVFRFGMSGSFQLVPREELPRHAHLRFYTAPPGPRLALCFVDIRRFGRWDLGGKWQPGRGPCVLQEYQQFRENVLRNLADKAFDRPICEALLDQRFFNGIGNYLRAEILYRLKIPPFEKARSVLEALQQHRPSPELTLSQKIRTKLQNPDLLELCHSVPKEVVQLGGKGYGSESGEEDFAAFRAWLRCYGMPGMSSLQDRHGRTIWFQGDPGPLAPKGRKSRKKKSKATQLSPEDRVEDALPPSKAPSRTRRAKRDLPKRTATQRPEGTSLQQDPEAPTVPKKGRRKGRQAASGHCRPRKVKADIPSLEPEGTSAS

On to `CC(C)CNc1ncnc2c1ncn2[C@H]1CN(Cc2ccc(-c3ccccc3)cc2)C[C@@H](CO)O1` [Purine P15], for which the pIC50 against NEIL1 [1] was less than 4.30; on NEIL1 [2], 4.85. On to `OC[C@@H]1CN(Cc2ccccc2)C[C@H](n2cnc3c(N4CCN(c5ccccc5)CC4)ncnc32)O1` [Purine P38], for which the pIC50 is less than 4.30 against NEIL1 [1] and 6.52 against NEIL1 [2].

On to `CN(C)CCNc1ncnc2c1ncn2[C@H]1CN(Cc2ccc(-c3ccccc3)cc2)C[C@@H](CO)O1` [Purine P16], for which the results for the pIC50 at NEIL1 [1] and against NEIL1 [2] were less than 4.30 and 4.80, respectively. In the case of `CCNc1nc(C#N)nc2c1ncn2-c1cccc(Cl)c1` [Purine P10], the pIC50 against NEIL1 [1] was less than 4.30; against NEIL1 [2], 5.00. Regarding `Cc1ccc(NC(=O)C2CCCN(c3ncnc4c3nc3n4CCCCC3)C2)cc1Cl` (stereo not drawn) [Purine P22], the pIC50 was less than 4.30 against NEIL1 [1] and 4.60 against NEIL1 [2]. The corresponding values for `CC(C)[C@H](CO)N(Cc1cccc(F)c1)c1nc(Nc2cccc(Cl)c2)c2ncn(C(C)C)c2n1` [Purine P32] are 4.71 and 5.15. Turning to `COc1ccc2[nH]cc(CCNC(=O)/C=C/[C@H]3O[C@@H](n4cnc5c(NC(=O)c6ccccc6)ncnc54)[C@H](O)[C@@H]3O)c2c1` [Purine P35], the pIC50 is less than 4.30 against NEIL1 [1] and 4.95 on NEIL1 [2].

On to `CC(C)n1cnc2c(NCc3ccccc3)nc(NCc3ccccc3)nc21` [Purine P33], for which the pIC50 was less than 4.30 at NEIL1 [1] and 5.10 against NEIL1 [2]. In the case of `CCOCCCNc1ncnc2c1nc1n2CCCC1` [Purine P42], the pIC50 at NEIL1 [1] is less than 4.30; on NEIL1 [2], 6.10. As for `CC(=O)OC[C@@H]1CN(Cc2ccccc2)C[C@H](n2cnc3c(NCc4ccc(F)cc4)ncnc32)O1` [Purine P29], the pIC50 at NEIL1 [1] was less than 4.30; against NEIL1 [2] it was 6.05.

As to `O=C(C1CCCN(c2ncnc3c2nc2n3CCCCC2)C1)N1CCN(c2cccc(Cl)c2)CC1` (stereo not drawn) [Purine P17], the figures for the pIC50 against NEIL1 [1] and against NEIL1 [2] were less than 4.30 and 4.80, respectively. With `O=C(OCC1OC(n2cnc3c(N(C(=O)c4ccccc4)C(=O)c4ccccc4)ncnc32)C(O)C1F)c1ccccc1` (stereo not drawn) [Purine P3], the pIC50 is less than 4.30 on NEIL1 [1] and 5.49 at NEIL1 [2]. With `N#Cc1nc(Nc2cc(F)cc(F)c2)c2ncn(CCN3CCCC3)c2n1` [Purine P1], the negative-log IC50 (pIC50) is less than 4.30 at NEIL1 [1] and 5.44 against NEIL1 [2]. In the case of `CNC(=O)[C@H]1O[C@H](n2cnc3c(NCc4cccc(I)c4)ncnc32)[C@@H](O)[C@@H]1O` [Purine P30], the pIC50 against NEIL1 [1] was less than 4.30; at NEIL1 [2], 5.74. Turning to `Cc1ccc(C(=O)Nc2cccc(C(F)(F)F)c2)cc1Nc1ncnc2nc[nH]c12` [Purine P20], the pIC50 on NEIL1 [1] is less than 4.30; against NEIL1 [2], 4.65. In the case of `COc1ccccc1CNC(=O)C1CCN(c2ncnc3c2nc2n3CCCCC2)CC1` [Purine P37], the values for the pIC50 against NEIL1 [1] and against NEIL1 [2] were less than 4.30 and 5.00, respectively. On to `N#Cc1nc(Nc2cc(F)cc(F)c2)c2ncn(CCCN3CCCC3)c2n1` [Purine P5], for which the pIC50 against NEIL1 [1] is less than 4.30; at NEIL1 [2], 5.10. As to `Cc1ccccc1CN1CCC(CNC(=O)C2CCCN(c3ncnc4c3nc3n4CCCCC3)C2)CC1` (stereo not drawn) [Purine P31], the values for the pIC50 against NEIL1 [1] and against NEIL1 [2] were less than 4.30 and 5.15, respectively. The corresponding values for `CCc1cccc(NC(=O)C2CCCN(c3ncnc4c3nc3n4CCCCC3)C2)c1` (stereo not drawn) [Purine P28] are less than 4.70 and 6.15. As for `C=CC(=O)N1CCCC(Nc2nc(Nc3ccc(N(C)C(=O)CC)cc3C)nc3nc[nH]c23)C1` (stereo not drawn) [Purine P12], the figures for the pIC50 against NEIL1 [1] and at NEIL1 [2] were less than 4.70 and 4.95, respectively.

On to `Cc1cc(C)c(CN2CCN(C(=O)Cn3cnc4c(NCc5ccccc5)ncnc43)CC2)c(C)c1` [Purine P25], for which the pIC50 at NEIL1 [1] was less than 4.70; against NEIL1 [2], 4.50.

With `Cc1cccc(OCCSc2nc3c([nH]2)c(=N)ncn3Cc2ccccc2)c1` [Purine P39], the pIC50 against NEIL1 [1] is less than 4.30; against NEIL1 [2], 6.22.

`O=C(O)C1=CC(=C(c2ccc(O)c(C(=O)O)c2)c2ccc(O)c(C(=O)O)c2)C=CC1=O` [aurintricarboxylic acid, reference compound]: the pIC50 on NEIL1 [2] is more than 6.00.
